In US20240368163A1, “COMPOUNDS AND METHODS FOR MODULATING SPLICING” (REMIX THERAPEUTICS INC., priority 2021, published 2024) one finds IC50 data, which are given here for 16 compounds.

What all share (type): cell-based, human
For assay [1], the system named is HTT. Kind of assay: Splicing RT-qPCR assay, HTT mRNA canonical junction (CJ) and alternative junction (AJ). To be noted: Homo sapiens, gene panel, CJ qPCR, protocol of Example 142; read-out: HTT IC50 (decrease in CJ mRNA levels). The essentials:
(§1)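 Splicing switch read by one-step RT-qPCR of canonical and alternative exon junctions, housekeeper-normalized (GAPDH/GUSB/PPIA), 2^(−ΔΔCt) vs DMSO as percent response. Cells (A673 or K562) dosed 24 h, 11 points 3-fold from 10 uM, DMSO ≤0.25%.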

For assay [2], the system named is MYB. Kind of assay: Splicing RT-qPCR assay, MYB mRNA canonical junction (CJ) and alternative junction (AJ). The settings on record: Homo sapiens, gene panel, CJ qPCR, protocol of Example 142; read-out: MYB IC50 (decrease in CJ mRNA levels). The essentials: as §1
Assay [3] has as its system Target C. As to the kind of experiment: Splicing RT-qPCR panel, Target C canonical junction (CJ) mRNA. The settings on record: Homo sapiens, gene panel, CJ qPCR, protocol of Example 142; read-out: Target C IC50 (decrease in CJ mRNA levels). The essentials: as §1
Assay [4] relates to Target C. As to the kind of experiment: HiBiT protein abundance assay, Target C. To be noted: Homo sapiens, K562, 24 h, Table 13B, modified K562 cells. The essentials: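 Luminescence from lytic HiBiT detection, taken after 24 h compound exposure at 37 °C, reports tagged protein abundance in knock-in cells seeded at 10000 cells/well. Doses spanned 10 points, 3-fold steps, top 10 μM final. A four-parameter logistic fit gave the 50% abundance concentration (IC50).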

The next assay has as its system SMN2. As to the kind of experiment: Splicing RT-qPCR panel, SMN2 canonical junction (CJ) mRNA. The settings on record: Homo sapiens, gene panel, CJ qPCR, protocol of Example 142; read-out: SMN2 IC50 (decrease in CJ mRNA levels). The essentials: as §1
In assay [5] the test system is HTT. As to the kind of experiment: HiBiT protein abundance assay, HTT. To be noted: Homo sapiens, K562, 24 h, Table 13B, modified K562 cells. The essentials: (§2)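 HiBiT knock-in K562, 10000 cells/well, 24 h cpd at 37 °C/5% CO2; 10-pt 3-fold series from 10 μM final; DMSO ≤0.25%. Lytic detection, luminescence read. 4PL fit → IC50 vs DMSO control; unmodified K562 = baseline.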

In assay [6] the test system is MYB. Kind of assay: HiBiT protein abundance assay, MYB. To be noted: Homo sapiens, K562, 24 h, Table 13B, modified K562 cells. The essentials: as §2

`COc1nc(-c2ccc(N(C)[C@@H]3C[C@H]4CC[C@@H](C3)N4)nc2)ccc1-c1cn[nH]c1` [Compound 979]: the IC50 was < 100 nM in the assay on HTT [1]; 0.1 to 1 µM in the assay on MYB [2]; 0.1 to 1 µM in the assay on Target C [3]; < 100 nM in the assay with Target C [4]; < 100 nM with SMN2; < 100 nM in the assay with HTT [5]. The compound further came in with a half-inhibitory concentration (IC50) in the assay on MYB [6] of 100 to 1000 nM.
Turning to `COc1nc(-c2cnc(N(C)[C@@H]3C[C@H]4CC[C@@H](C3)N4)cn2)ccc1-c1cn[nH]c1` [Compound 980], the IC50 in the assay with HTT [1] is 1000 to 10000 nM; with MYB [2], 1 to 10 µM; with Target C [3], 1 to 10 µM; in the assay on Target C [4], 1000 to 10000 nM; in the assay on SMN2 it was > 10000 nM; in the assay on HTT [5] it was 1000 to 10000 nM. The IC50 in the assay on MYB [6] lay within 1000 to 10000 nM.
Take `COc1nc(-c2cnc(N(C)[C@@H]3C[C@H]4CC[C@@H](C3)N4)nc2)ccc1-c1cn[nH]c1` [Compound 981]: the IC50 was 100 to 1000 nM in the assay on HTT [1]; 1 to 10 µM with MYB [2]; 1 to 10 µM in the assay with Target C [3]; 100 to 1000 nM in the assay with Target C [4]; 100 to 1000 nM in the assay with SMN2; < 100 nM in the assay on HTT [5]. This compound also yielded an IC50 in the assay with MYB [6] of 100 to 1000 nM.
Take `COc1nc(-c2ccc(NC3CCNCC3)nc2)ccc1-c1cnn(C)c1` [Compound 986]: the IC50 with HTT [1] fell in the range of 1000 to 10000 nM; with MYB [2], 1 to 10 µM; with Target C [3], 1 to 10 µM; with Target C [4], 1000 to 10000 nM; with SMN2, 100 to 1000 nM; in the assay on HTT [5] it was 100 to 1000 nM. In the assay with MYB [6], this compound had an IC50 of 1000 to 10000 nM.
`COc1nc(-c2ccc(NC3CCNCC3)nc2)ccc1-n1cccn1` [Compound 987]: the IC50 with HTT [1] was > 10000 nM; with MYB [2] it was > 10 µM; in the assay on Target C [3], > 10 µM; in the assay on Target C [4] it was 1000 to 10000 nM; in the assay with SMN2, 1000 to 10000 nM; with HTT [5], > 10000 nM. In the assay with MYB [6], this compound gave an IC50 of 1000 to 10000 nM.
For `COc1nc(-c2ccc(NC3CCNCC3)nc2)ccc1-c1cnn(C)n1` [Compound 988], the IC50 in the assay on HTT [1] was 1000 to 10000 nM; with MYB [2], > 10 µM; in the assay on Target C [3] it was > 10 µM; in the assay with Target C [4], 1000 to 10000 nM; in the assay with SMN2 it was 100 to 1000 nM; in the assay on HTT [5], 1000 to 10000 nM. The same compound displayed an IC50 with MYB [6] of 1000 to 10000 nM.
Take `COc1nc(-c2ccc(OC3CC(C)(C)NC(C)(C)C3)nc2)ccc1-c1cn[nH]c1` [Compound 989]: the IC50 in the assay with HTT [1] was in the range of 100 to 1000 nM; in the assay on MYB [2], 1 to 10 µM; with Target C [3] it was 1 to 10 µM; in the assay with Target C [4], 100 to 1000 nM; in the assay on SMN2, 100 to 1000 nM; in the assay with HTT [5], 100 to 1000 nM. This compound had an IC50 with MYB [6] of 1000 to 10000 nM.
Regarding `COc1nc(-c2ccc(OC3CC(C)(C)NC(C)(C)C3)nc2)ccc1-n1cccn1` [Compound 991], the IC50 was > 10000 nM with HTT [1]; > 10 µM in the assay on MYB [2]; > 10 µM in the assay on Target C [3]; 1000 to 10000 nM with Target C [4]; > 10000 nM with SMN2; 1000 to 10000 nM in the assay on HTT [5]. Also, the IC50 in the assay with MYB [6] is > 10000 nM.
On to `COc1nc(-c2ccc(OC3CC(C)(C)NC(C)(C)C3)nc2)ccc1-c1cnn(C)n1` [Compound 992], for which the IC50 was 1000 to 10000 nM in the assay with HTT [1]; > 10 µM in the assay on MYB [2]; > 10 µM in the assay on Target C [3]; 1000 to 10000 nM in the assay on Target C [4]; 1000 to 10000 nM in the assay with SMN2; 100 to 1000 nM in the assay on HTT [5]. Further, the IC50 in the assay on MYB [6] lay in the range of 1000 to 10000 nM.
Regarding `COc1nc(-c2ccc(N(C)C3CC(C)(C)NC(C)(C)C3)nc2)ccc1-c1cn[nH]c1` [Compound 993], the IC50 with HTT [1] is < 100 nM; with MYB [2], 0.1 to 1 µM; with Target C [3], 0.1 to 1 µM; in the assay with Target C [4], 100 to 1000 nM; with SMN2 it was < 100 nM; in the assay on HTT [5], < 100 nM. Moreover, the IC50 in the assay on MYB [6] lay within 100 to 1000 nM.
Consider `COc1nc(-c2ccc(N(C)C3CC(C)(C)NC(C)(C)C3)nc2)ccc1-c1cnn(C)c1` [Compound 994], for which the half-inhibitory concentration (IC50) is 100 to 1000 nM in the assay on HTT [1]; 0.1 to 1 µM with MYB [2]; 0.1 to 1 µM in the assay on Target C [3]; 100 to 1000 nM in the assay on Target C [4]; 1000 to 10000 nM with SMN2; 100 to 1000 nM in the assay with HTT [5]. In the assay on MYB [6], the IC50 was 1000 to 10000 nM.
As for `COc1nc(-c2ccc(N(C)C3CC(C)(C)NC(C)(C)C3)nc2)ccc1-n1cccn1` [Compound 995], the IC50 with HTT [1] is 1000 to 10000 nM; in the assay on MYB [2], > 10 µM; in the assay on Target C [3] it was > 10 µM; in the assay on Target C [4], 1000 to 10000 nM; in the assay with SMN2, 1000 to 10000 nM; with HTT [5], 1000 to 10000 nM. This compound came in with an IC50 in the assay on MYB [6] of 1000 to 10000 nM.
On to `COc1nc(-c2ccc(N(C)C3CC(C)(C)NC(C)(C)C3)nc2)ccc1-c1cnn(C)n1` [Compound 996], for which the IC50 was in the range of 100 to 1000 nM with HTT [1]; 1 to 10 µM in the assay with MYB [2]; 1 to 10 µM in the assay with Target C [3]; 100 to 1000 nM with Target C [4]; 100 to 1000 nM in the assay on SMN2; 100 to 1000 nM in the assay with HTT [5]. This compound yielded an IC50 in the assay on MYB [6] of 1000 to 10000 nM.
As for `COc1nc(-c2ncc(N(C)[C@@H]3C[C@H]4CC[C@@H](C3)N4)cn2)ccc1-c1cn[nH]c1` [Compound 997], the IC50 in the assay on HTT [1] is > 10000 nM; in the assay on MYB [2], > 10 µM; in the assay on Target C [3], > 10 µM; in the assay with Target C [4], > 10000 nM; with SMN2 it was > 10000 nM; in the assay with HTT [5] it was > 10000 nM. Moreover, the IC50 in the assay on MYB [6] is > 10000 nM.
On to `COc1nc(-c2ccc(N3CCC(NC4CC4)C3)nn2)ccc1-c1cn[nH]c1` (stereo not shown) [Compound 998], for which the IC50 in the assay on HTT [1] was 100 to 1000 nM; in the assay with MYB [2], > 10 µM; with Target C [3] it was > 10 µM; in the assay with Target C [4] it was 1000 to 10000 nM; in the assay with SMN2, 100 to 1000 nM; in the assay with HTT [5], 100 to 1000 nM. For the same compound, in the assay on MYB [6], the IC50 was > 10000 nM.
On to `COc1nc(-c2ccc(OC3CC(C)(C)NC(C)(C)C3)nn2)cnc1-c1cn[nH]c1` [Compound 999], for which the IC50 is 1000 to 10000 nM in the assay on HTT [1]; 1 to 10 µM in the assay with MYB [2]; 1 to 10 µM in the assay with Target C [3]; > 10000 nM in the assay on Target C [4]; 100 to 1000 nM with SMN2; 1000 to 10000 nM in the assay on HTT [5]. This compound also registered an IC50 in the assay with MYB [6] of 1000 to 10000 nM.
